Patent US10780174B2, “Lipid-linked prodrugs” (The University of British Columbia, priority 2015, dated 2020)

Columns and labels:
OVCAR3 cells = assay: In vitro growth inhibition by LD-DTX prodrugs, cell viability assay; format: cell-based; settings: for IC50: Homo sapiens, OVCAR-3, 48 h, Ovcar3 cells
Method: OVCAR3 cells were obtained from ATCC (Manassas, Va.). Cells were seeded at 12,000 cells per well on 96-well plates and treated with free docetaxel, prodrugs, lipid nanoparticle formulations with or without prodrugs at 0 to 15 μM of docetaxel for 48 h. Cell viability was determined by a colorimetric assay, based on the tetrazolium salt MIT (3-(4,5-dimethylthiazol-2-yl)-2,5-diphenyltetrazolium bromide), as described previously [Mossman 1983].

[1] = tested on: immunostimulatory effects of LNP-CpG (plasma cytokines); assay: In vivo immune suppression by LD-DEX prodrugs, LNP-CpG model; parameters: species or system C57Bl/6 mice; settings: mice, i.v., 10 mg/kg of CpG, 2 h post injection
Method: 6-8 Weeks old female C57Bl/6 mice (Charles River Laboratories™, Wilmington, Mass.) were injected intravenously with lipid nanoparticles containing CpG DNA oligonucleotides (10 mg/kg), mRNA (3 mg/kg) or plasmid DNA (pDNA) (1 mg/kg). Animals were euthanized 2 hours post-injection and blood was collected via intracardiac or saphenous sampling. Plasma was separated from whole blood by centrifugation and analyzed for proinflammatory cytokines using the Mesoscale Proinflammatory Multiplex™ kit (Rockville, Md.) according to manufacturer's instruction. All procedures were approved by the Animal Care Committee at the University of British Columbia and were performed in accordance with guidelines established by the Canadian Council on Animal Care.

[2] = Particle size and polydispersity of LNP containing prodrug (dynamic light scattering); format: physicochemical; settings: PDI in brackets
Method: (§1) Preparation of LNP Systems: PC-Chol LNP systems were prepared by rapidly mixing POPC, cholesterol, lipid-linked prodrug and PEG-DMPE (in molar ratio of 49/39/10/2) dissolved in ethanol with phosphate-buffered saline using a T-junction mixer. Formulations were dialyzed against phosphate-buffered saline to remove residual ethanol and to raise the pH to 7.4. PC-TO and ionizable LNP systems were prepared in the same way except that the lipid compositions for these systems are: POPC, triolein, lipid-linked prodrug and PEG-DSPE (in molar ration of 19/70/10/1), and ionizable lipid, DSPC, cholesterol, lipid-linked prodrug and PEG-DMPE (in molar ration of 40/10/38.5/10/1.5), respectively.
Characterization of LNP: Particle size was determined by dynamic light scattering using a Malvern Zetasizer Nano ZS™ (Malvern, UK) following buffer exchange into phosphate-buffered saline. Number-weighted size and distribution data was used. Lipid concentrations were determined by measuring total cholesterol using the Cholesterol E enzymatic assay kit from Wako Chemicals USA™ (Richmond, Va.). The morphology of LNP formulations containing LD-DEX was analyzed by cryogenic-transmission electron microscopy (cryoTEM) as described previously [Leung et al. (2012)].

[3] = Prodrug incorporation (entrapment) in lipid nanoparticles, UHPLC; format: physicochemical
Method: as §1
(§2) Quantitation of prodrugs by HPLC: LD-DEX/DTX were quantified by ultra high-pressure liquid chromatography (UHPLC) using a Waters Acquity™ UPLC system equipped with a photodiode array detector (PDA) and evaporative light scattering (ELS) detector; Empower™ data acquisition software version 3.0 was used (Waters™, USA). Separations were performed using a Waters Acquity™ BEH C18 column (1.7 μm, 2.1×100 mm) at a flow rate of 0.5 ml/min, with mobile phases A and B consisting of methanol/10 mM ammonium bicarbonate (80/20% v/v) and methanol/acetonitrile (80/20% v/v), respectively. The mobile phases were delivered at a programmed linear gradient (45%-80% B in 1 min then to 99% B at 2 min) at a column temperature of 55° C. The analyte was measured by PDA (at a wavelength of 239 nm) and ELS detector against calibration standard curves. For the analysis of LD-DEX/DTX breakdown to active compound, linear gradients of 20/80% to 100/0% (acetonitrile/water, v/v) over 7 min were used.

[4] = In vitro degradation of lipid-linked prodrugs in LNP, mouse plasma; format: in vitro ADME; settings: LNP; for prodrug cleavage/degradation after 1 h in plasma: 37° C., mouse plasma
Method: as §2
To determine the biodegradability of the dexamethasone or docetaxel prodrugs (LD-DEX/DTX), 1 mg/mL LNP was incubated in mouse plasma (Cedarlane™, Burlington, Ontario) or PBS supplemented with 10 U of purified esterase (Sigma-Aldrich™, St. […] Post incubation, four volumes of chloroform/methanol (2:1) was added and the mixture was vortex mixed. Samples were centrifuged at 13,000 g for 5 minutes and the upper phase was discarded. The remaining organic phase was dried down under vacuum and the resulting lipid extract was dissolved in methanol/acetonitrile (1:1). Quantity of parent LD-DEX/DTX compound was determined by ultra high pressure liquid chromatography on a Waters Acquity™ H-Class UPLC System™ equipped with a BEH C18 column and a photodiode array detector.

[5] = tested on: purified porcine esterase; assay: In vitro degradation of lipid-linked prodrugs in LNP, purified esterase in PBS; settings: LNP, 24 h incubation
[6] = LD-DEX prodrug in ionizable LNP
[7] = LD-DTX prodrug in ionizable LNP

SMILES	suppression of cancer cell proliferation / IC50 comparison (in words) (OVCAR3 cells; OVCAR3, 0 to 15 μM of docetaxel, 48 h)	plasma TNFα and KC/GRO levels versus control LNP-CpG [1]	Particle size (PDI) PC-Chol LNP ([2]; LD-DEX prodrug in PC-Chol LNP)	Particle size (PDI) [ionizable LNP] [2, 6]	% Entrapment PC-Chol LNP ([3]; LD-DEX prodrug in PC-Chol LNP)	% Entrapment [ionizable LNP] [3, 6]	input amount incorporated into the final lipid nanoparticle preparation ([3]; of the input amount)	prodrug cleavage/degradation after 1 h in plasma [4]	Particle size (PDI) PC-Chol LNP ([2]; LD-DTX prodrug in PC-Chol LNP)	Particle size (PDI) [ionizable LNP] [2, 7]	% Entrapment PC-Chol LNP ([3]; LD-DTX prodrug in PC-Chol LNP)	% Entrapment [ionizable LNP] [3, 7]	IC50 (OVCAR3 cells; Free drugs)	IC50 (OVCAR3 cells; PC-Chol LNP)	IC50 (OVCAR3 cells; PC-TO LNP)	IC50 (OVCAR3 cells; ionizable LNP)	release of active drug (UPLC chromatogram) in mouse plasma ([4]; 24 h incubation)	release of active drug (UPLC chromatogram) in purified esterase [5]
CC(=O)O[C@@]12CO[C@@H]1C[C@H](O)[C@@]1(C)C(=O)[C@H](O)C3=C(C)[C@@H](OC(=O)[C@H](O)[C@@H](NC(=O)OC(C)(C)C)c4ccccc4)C[C@@](O)([C@@H](OC(=O)c4ccccc4)[C@H]21)C3(C)C [Docetaxel, reference compound]	much lower than all the other test articles	–	–	–	–	–	–	–	–	–	–	–	–	–	–	–	–	–
CCCCC/C=C\C/C=C\CCCCCCCC(=O)OC(COC(=O)CCC(=O)OCC(=O)[C@@]1(O)[C@H](C)C[C@H]2[C@@H]3CCC4=CC(=O)C=C[C@]4(C)[C@@]3(F)[C@@H](O)C[C@@]21C)CN(C)C (stereo partly shown) [LD01-DEX]	–	marked reduction in cytokine levels	77 (0.06) nm	[51 (0.04)] nm	72%	[65] %	65-72 mol %	significant cleavage	–	–	–	–	–	–	–	–	–	–
CCCCC/C=C\C/C=C\CCCCCCCC(=O)OCC(COC(=O)CCC(=O)O[C@@H](C(=O)O[C@H]1C[C@@]2(O)[C@@H](OC(=O)c3ccccc3)[C@@H]3[C@]4(OC(C)=O)CO[C@@H]4C[C@H](O)[C@@]3(C)C(=O)[C@H](O)C(=C1C)C2(C)C)[C@@H](NC(=O)OC(C)(C)C)c1ccccc1)OC(=O)CCCCCCC/C=C\C/C=C\CCCCC (stereo partly drawn) [LD10-DTX, (2R,3S)-1-(((2aR,4S,4aS,6R,9S,11S,12S,12aR,12bS)-12b-acetoxy-12-(benzoyloxy)-4,6,11-trihydroxy-4a,8,13,13-tetramethyl-5-oxo-2a,3,4,4a,5,6,9,10,11,12,12a,12b-dodecahydro-1H-7,11-methanocyclodeca[3,4]benzo[1,2-b]oxet-9-yl)oxy)-3-((tert-butoxycarbonyl)amino)-1-oxo-3-phenylpropan-2-yl (2,3-bis((9Z,12Z)-octadeca-9,12-dienoyloxy)propyl) succinate]	–	–	–	–	–	–	–	largely not degraded	58 (0.06) nm	[42 (0.06)] nm	95%	[100] %	156 nM	374 nM	791 nM	133 nM	–	–
CCCCCCCCCCCCCC(=O)OCC(COC(=O)CCC(=O)O[C@@H](C(=O)O[C@H]1C[C@@]2(O)[C@@H](OC(=O)c3ccccc3)[C@@H]3[C@]4(OC(C)=O)CO[C@@H]4C[C@H](O)[C@@]3(C)C(=O)[C@H](O)C(=C1C)C2(C)C)[C@@H](NC(=O)OC(C)(C)C)c1ccccc1)OC(=O)CCCCCCCCCCCCC (stereo partly drawn) [LD22-DTX, (2R,3S)-1-(((2aR,4S,4aS,6R,9S,11S,12S,12aR,12bS)-12b-acetoxy-12-(benzoyloxy)-4,6,11-trihydroxy-4a,8,13,13-tetramethyl-5-oxo-2a,3,4,4a,5,6,9,10,11,12,12a,12b-dodecahydro-1H-7,11-methanocyclodeca[3,4]benzo[1,2-b]oxet-9-yl)oxy)-3-((tert-butoxycarbonyl)amino)-1-oxo-3-phenylpropan-2-yl (2,3-bis(tetradecanoyloxy)propyl) succinate]	–	–	–	–	–	–	–	largely not degraded	65 (0.04) nm	[39 (0.07)] nm	93%	[100] %	51.7 nM	~1550 nM	315 nM	93 nM	active docetaxel (DTX) was observed	active docetaxel (DTX) was observed
CCCCCCCC/C=C\CCCCCCCC(=O)OCC(COC(=O)CCC(=O)O[C@@H](C(=O)O[C@H]1C[C@@]2(O)[C@@H](OC(=O)c3ccccc3)[C@@H]3[C@]4(OC(C)=O)CO[C@@H]4C[C@H](O)[C@@]3(C)C(=O)[C@H](O)C(=C1C)C2(C)C)[C@@H](NC(=O)OC(C)(C)C)c1ccccc1)OC(=O)CCCCCCC/C=C\CCCCCCCC (stereo partly drawn) [LD23-DTX, (2R,3S)-1-(((2aR,4S,4aS,6R,9S,11S,12S,12aR,12bS)-12b-acetoxy-12-(benzoyloxy)-4,6,11-trihydroxy-4a,8,13,13-tetramethyl-5-oxo-2a,3,4,4a,5,6,9,10,11,12,12a,12b-dodecahydro-1H-7,11-methanocydodeca[3,4]benzo[1,2-b]oxet-9-yl)oxy)-3-((tert-butoxycarbonyl)amino)-1-oxo-3-phenylpropan-2-yl (2,3-bis(oleoyloxy)propyl) succinate]	–	–	–	–	–	–	–	largely not degraded	60 (0.05) nm	[39 (0.06)] nm	100%	[100] %	64.5 nM	~15600 nM	692 nM	99.9 nM	–	–
